The source of these data is ChEMBL document CHEMBL1156543, “Identification of N-(4-piperidinyl)-4-(2,6-dichlorobenzoylamino)-1H-pyrazole-3-carboxamide (AT7519), a novel cyclin dependent kinase inhibitor using fragment-based X-ray crystallography and structure based drug design” (J Med Chem, 2008).

Structures are written as SMILES. pIC50: −log10 of the molar value.

The target of series [1] is Cyclin-dependent kinase 1/cyclin B1 (Homo sapiens, UniProt P06493).
Description: Inhibition of CDK1/Cyclin B by radiometric assay
The next series in a line: in vivo. The note with it: BALB/c, mouse, plasma, iv, 0.2 mg/kg.
Series [2] concerns the target Cyclin-dependent kinase 2 (Homo sapiens, UniProt P24941).
Description: Inhibition of CDK2/Cyclin A by radiometric assay
The species entered for another series is Mus musculus. The note with it: in vivo, ip, 10 mg/kg.
A short description of a further series: in vitro. The note with it: mouse, plasma.
Series [3] concerns HCT-116. Briefly: Antitumor activity against human HCT116 cells xenografted into BALB/c mouse at 10 mg/kg, ip bid administered QDx9 schedule relative to control. The series is classed as functional. The note with it: route intraperitoneal. Background: Xenograft models place foreign cells or tissue in a host animal.
Series [4] has as its system HCT-116. As to the kind of experiment: Antitumor activity against human HCT116 cells xenografted into SCID mouse at 9.1 mg/kg, ip bid for 10 days. The note with it: HCT-116, ip, 240 h, route intraperitoneal. The series is classed as functional.
Series [5] has as its system HCT-116. Briefly: Antitumor activity against human HCT116 cells xenografted into SCID mouse at […], ip bid for 10 days. Conditions: HCT-116, ip, 240 h, dose 4.6 mg/kg, route intraperitoneal. The format is functional.
The subject of series [6] is HCT-116. As to the kind of experiment: Antitumor activity against human HCT116 cells xenografted into SCID mouse at 18.2 mg/kg, ip bid for 10 days. The format is functional. The note with it: HCT-116, ip, 240 h, route intraperitoneal.
The test system of series [7] is HCT-116. Conditions: dose 9.1 mg/kg; route intraperitoneal.
Description: Antitumor activity against human HCT116 cells xenografted into SCID mouse at 9.1 mg/kg, ip bid administered QDx10 schedule relative to control

Sequence of Cyclin-dependent kinase 1/cyclin B1 (P06493 whole entry): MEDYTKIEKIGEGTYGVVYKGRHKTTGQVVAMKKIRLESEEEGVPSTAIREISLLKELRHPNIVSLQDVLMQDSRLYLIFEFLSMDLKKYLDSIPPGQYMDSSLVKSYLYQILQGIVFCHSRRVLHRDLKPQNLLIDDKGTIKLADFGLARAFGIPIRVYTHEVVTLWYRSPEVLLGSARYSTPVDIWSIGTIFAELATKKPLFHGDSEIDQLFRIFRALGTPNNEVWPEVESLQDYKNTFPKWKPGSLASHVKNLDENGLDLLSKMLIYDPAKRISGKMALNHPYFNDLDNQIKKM
Sequence of Cyclin-dependent kinase 1/cyclin B1 (P14635 whole entry, further chain): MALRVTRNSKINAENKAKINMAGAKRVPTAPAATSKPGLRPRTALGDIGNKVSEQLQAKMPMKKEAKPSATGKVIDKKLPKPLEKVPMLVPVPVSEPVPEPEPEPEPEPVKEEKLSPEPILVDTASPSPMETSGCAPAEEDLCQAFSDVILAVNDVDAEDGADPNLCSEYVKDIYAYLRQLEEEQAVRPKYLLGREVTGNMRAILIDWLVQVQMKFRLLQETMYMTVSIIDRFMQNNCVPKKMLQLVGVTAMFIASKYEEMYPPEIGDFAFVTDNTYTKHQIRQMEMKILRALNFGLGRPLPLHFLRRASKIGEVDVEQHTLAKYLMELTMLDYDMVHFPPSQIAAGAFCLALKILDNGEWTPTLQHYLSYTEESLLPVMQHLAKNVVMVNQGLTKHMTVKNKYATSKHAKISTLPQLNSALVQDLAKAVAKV
Description for in vitro: Protein binding in mouse plasma at 1 ug/ml after 30 mins

The term pIC50 denotes −log10 of the IC50, conventionally taken in molar units. High values mean a small IC50, low ones a large IC50. The clearance is the rate of elimination divided by the concentration. High values mean a high capacity for elimination, low ones a low capacity for elimination. `Cl.O=C(N[C@H]1CCCNC1)c1n[nH]cc1NC(=O)c1c(F)cccc1F`: the pIC50 is 7.42 in series [1] and 7.36 in [2]. This compound returned a clearance in “in vivo” of 48 mL/min/kg.

For `O=C(NC1CCNCC1)c1n[nH]cc1NC(=O)c1c(F)cc(F)cc1F`, the clearance in “in vivo” was determined as 71 mL/min/kg. The pIC50 in [2] is 6.12.

`c1ccc2[nH]c(-c3cc[nH]n3)nc2c1` showed a pIC50 in series [2] of 4.60.

In [2], `Clc1cncc(Nc2ccccc2)n1` gave a pIC50 of 5.15.

Broadly, the fraction unbound is free concentration divided by total concentration. A high value points to much free substance. A word on the T/C: it is the result in the treated group divided by that in the control group, in per cent. With `COc1cccc(F)c1C(=O)Nc1c[nH]nc1C(=O)NC1CCNCC1`, in the series listed under Mus musculus, the AUC was found to be 3325 ng·h/g. The fraction unbound at 0.5 h, 1 ug/ml in the series “in vitro” is 0.25. The same compound gave a T/C in the series on HCT-116 [3] of 62%. The clearance in “in vivo” is 38 mL/min/kg. In series [2], the negative logarithm of the IC50 (pIC50) was 6.46.

Compound `O=C(Nc1ccccc1)c1n[nH]c2ccccc12` gave a negative-log IC50 (pIC50) in series [2] of 5.52.

Turning to `O=C(N[C@H]1CC[C@H](O)CC1)c1n[nH]cc1NC(=O)c1c(F)cccc1F`, the pIC50 in series [1] is 7.35; in series [2], 7.72. The clearance in the series “in vivo” was 42 mL/min/kg.

As for `Nc1c[nH]nc1C(=O)Nc1ccc(F)cc1`, in series [2], the pIC50 is 4.07.

In [1], `O=C(Nc1ccc(F)cc1)c1n[nH]cc1NC(=O)c1c(F)cccc1F` gave a pIC50 of 8.00. The clearance in “in vivo” was found to be 40 mL/min/kg.

For orientation: inhibition in vivo means how much of the control response was suppressed. Lower therefore signals a weak effect. Consider `O=C(NC1CCNCC1)c1n[nH]cc1NC(=O)c1c(F)cccc1F` [listing 1 of 2 here], for which the inhibition in vivo at 9.1 mg/kg in the series on HCT-116 [4] stood at 46%. Also, the inhibition in vivo at […] with HCT-116 [5] amounted to 22%. In the series with HCT-116 [6], the inhibition in vivo at 18.2 mg/kg came to 86%.

On to `N[C@H]1CC[C@H](NC(=O)c2n[nH]cc2NC(=O)c2c(F)cccc2F)CC1`, for which the negative-log IC50 (pIC50) in series [1] is 6.36; in [2] it was 7.42. Besides, the clearance in the series “in vivo” worked out at 63 mL/min/kg.

`O=C(NCC1CC1)c1n[nH]cc1NC(=O)c1c(F)cccc1F` had a clearance in “in vivo” of 66 mL/min/kg.

Regarding `O=C(NC1CCNCC1)c1n[nH]cc1NC(=O)c1c(F)cccc1Cl`, the clearance in “in vivo” was determined as 56 mL/min/kg. The pIC50 in [2] is 6.96.

`O=C(CO)Nc1c[nH]nc1C(=O)Nc1ccc(F)cc1` showed a pIC50 in [2] of 6.14.

`O=C(NC1CCCCC1)c1n[nH]cc1NC(=O)c1c(F)cccc1F`: in [1], the pIC50 was 7.26. Also, in “in vivo”, the clearance amounted to 65 mL/min/kg.

The compound `O=C(NC1CCNCC1)c1n[nH]cc1NC(=O)c1c(F)cccc1F` [listing 2 of 2 here] gave an AUC in the series filed under Mus musculus of 3422 ng·h/g. In “in vitro”, this compound had a fraction unbound at 0.5 h, 1 ug/ml of 0.16. The same compound displayed a T/C in the series on HCT-116 [7] of 54%. Besides, the clearance in the series “in vivo” was determined as 43 mL/min/kg.
